Consider five compounds from patent US12448392B2, “Spiropiperidine derivatives” (89BIO LTD, priority 2016, dated 2025).

Assay [1] deals with viral replication (Flaviviridae family). The note with it: inhibition of FASN by small molecule inhibitors; cited from earlier work.
The conditions of assay [2]: non-specific irreversible FASN inhibitors; cited from earlier work.
The target in assay [3] is T1, recombinant human baculovirus-expressed GST-tagged FASN (Homo sapiens, UniProt P49327).
T1 construct: GST
T1 sequence (P49327 whole entry): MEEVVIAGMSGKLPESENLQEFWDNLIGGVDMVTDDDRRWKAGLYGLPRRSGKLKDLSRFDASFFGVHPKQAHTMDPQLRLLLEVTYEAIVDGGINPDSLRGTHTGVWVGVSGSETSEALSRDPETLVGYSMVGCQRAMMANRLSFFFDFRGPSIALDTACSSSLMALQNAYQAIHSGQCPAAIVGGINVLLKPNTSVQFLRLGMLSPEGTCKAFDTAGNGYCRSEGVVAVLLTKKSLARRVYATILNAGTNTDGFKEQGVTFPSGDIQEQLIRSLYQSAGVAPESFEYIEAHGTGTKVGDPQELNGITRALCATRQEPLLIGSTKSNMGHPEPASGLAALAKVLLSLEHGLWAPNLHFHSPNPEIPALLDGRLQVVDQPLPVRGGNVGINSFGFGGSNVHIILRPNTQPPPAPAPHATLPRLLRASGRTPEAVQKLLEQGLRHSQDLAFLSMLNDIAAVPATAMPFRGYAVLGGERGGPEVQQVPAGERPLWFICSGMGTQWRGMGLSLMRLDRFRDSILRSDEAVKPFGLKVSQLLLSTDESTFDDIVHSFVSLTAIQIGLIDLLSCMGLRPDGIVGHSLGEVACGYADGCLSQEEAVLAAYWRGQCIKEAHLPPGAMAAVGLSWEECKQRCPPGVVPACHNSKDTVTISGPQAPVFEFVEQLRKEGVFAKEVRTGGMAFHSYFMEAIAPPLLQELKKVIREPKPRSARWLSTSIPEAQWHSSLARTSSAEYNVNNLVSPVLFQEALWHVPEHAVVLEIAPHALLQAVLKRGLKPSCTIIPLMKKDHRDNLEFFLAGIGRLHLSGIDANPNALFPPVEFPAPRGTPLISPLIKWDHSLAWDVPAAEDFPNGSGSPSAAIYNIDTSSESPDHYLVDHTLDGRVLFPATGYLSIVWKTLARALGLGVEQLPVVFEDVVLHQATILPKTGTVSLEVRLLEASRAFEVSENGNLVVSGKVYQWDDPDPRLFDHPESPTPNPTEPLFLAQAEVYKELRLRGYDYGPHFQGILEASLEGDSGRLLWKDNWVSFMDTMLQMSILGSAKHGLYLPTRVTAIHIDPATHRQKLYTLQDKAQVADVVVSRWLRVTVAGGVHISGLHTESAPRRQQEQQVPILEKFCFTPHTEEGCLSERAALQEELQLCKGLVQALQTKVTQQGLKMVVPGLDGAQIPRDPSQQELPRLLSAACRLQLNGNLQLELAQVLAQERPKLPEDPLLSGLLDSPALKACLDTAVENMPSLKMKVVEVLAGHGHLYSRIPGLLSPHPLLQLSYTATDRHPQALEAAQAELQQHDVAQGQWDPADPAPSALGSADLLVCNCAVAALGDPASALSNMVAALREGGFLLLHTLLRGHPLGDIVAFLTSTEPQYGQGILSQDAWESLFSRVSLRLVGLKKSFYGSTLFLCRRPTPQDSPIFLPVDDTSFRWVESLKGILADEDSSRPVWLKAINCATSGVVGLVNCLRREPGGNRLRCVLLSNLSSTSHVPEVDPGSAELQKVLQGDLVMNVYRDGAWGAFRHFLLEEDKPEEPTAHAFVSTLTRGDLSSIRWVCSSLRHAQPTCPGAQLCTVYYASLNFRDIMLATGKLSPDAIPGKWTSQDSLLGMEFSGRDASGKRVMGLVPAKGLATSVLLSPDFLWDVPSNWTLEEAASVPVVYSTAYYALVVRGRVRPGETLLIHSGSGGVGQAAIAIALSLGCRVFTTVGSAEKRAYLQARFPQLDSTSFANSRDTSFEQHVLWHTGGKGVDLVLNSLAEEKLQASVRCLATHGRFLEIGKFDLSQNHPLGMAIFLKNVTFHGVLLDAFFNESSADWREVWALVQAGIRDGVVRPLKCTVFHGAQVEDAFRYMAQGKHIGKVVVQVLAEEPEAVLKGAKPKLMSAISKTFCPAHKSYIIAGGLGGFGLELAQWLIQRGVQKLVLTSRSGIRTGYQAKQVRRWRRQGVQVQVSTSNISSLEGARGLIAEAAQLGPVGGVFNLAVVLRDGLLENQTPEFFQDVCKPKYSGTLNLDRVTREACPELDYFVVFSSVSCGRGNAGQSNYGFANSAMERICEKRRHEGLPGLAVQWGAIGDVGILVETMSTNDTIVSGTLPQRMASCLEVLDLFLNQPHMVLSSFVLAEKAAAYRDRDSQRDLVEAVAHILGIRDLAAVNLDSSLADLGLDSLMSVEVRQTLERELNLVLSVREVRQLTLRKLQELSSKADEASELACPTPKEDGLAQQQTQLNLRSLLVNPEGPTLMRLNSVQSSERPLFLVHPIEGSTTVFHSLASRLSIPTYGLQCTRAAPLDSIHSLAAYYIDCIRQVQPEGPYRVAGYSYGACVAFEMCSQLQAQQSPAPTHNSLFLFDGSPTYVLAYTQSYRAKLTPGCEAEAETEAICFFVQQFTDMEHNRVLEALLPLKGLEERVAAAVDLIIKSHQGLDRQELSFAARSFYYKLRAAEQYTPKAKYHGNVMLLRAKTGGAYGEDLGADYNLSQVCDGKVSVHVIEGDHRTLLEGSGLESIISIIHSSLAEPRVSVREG
The experiment in a line: biochemical. The note with it: 5 nM FASN, 150 μM NADPH, 10 μM acetyl-CoA, 25 μM malonyl-CoA, 90 minutes incubation; read-out: IC50 data for Compounds of Formula I, Activity.

In general, IC50 refers to the concentration at which inhibition is half-maximal.

With `C/C=C/C/C=C/CCC(=O)[C@H]1O[C@H]1C(N)=O` [Cerulenin], the “inhibition of viral replication” value in assay [1] is recorded as “strong inhibition of viral replication”. Also, in assay [2], the “brain levels of orexigenic neuropeptides” value is listed as “decrease brain levels of orexigenic neuropeptides” and the food intake result is given as “decrease food intake”. For `CONC(=O)N1CCC2(CCc3cc(-c4ccc5cccnc5c4C)cc(Cl)c3O2)CC1` [Example 250, 8-Chloro-N-methoxy-6-(8-methyl-7-quinolyl)spiro[chromane-2,4′-piperidine]-1′-carboxamide], the IC50 in assay [3] lay in the range of 0.1 to 0.999 µM. Same read-out and setting: the figure for `Cc1c(-c2ccc3c(c2)CCC2(CCN(C(N)=O)CC2)O3)ccc2c(O)ccnc12` [Example 251, 6-(4-Hydroxy-8-methyl-7-quinolyl)spiro[chromane-2,4′-piperidine]-1′-carboxamide] is 1 to 10 µM.

Consider `C=C1C(=O)OC(CCCCCCCC)C1C(=O)O` (centres unmarked) [Example C-75], for which, in assay [2], the “brain levels of orexigenic neuropeptides” value is on record as “decrease brain levels of orexigenic neuropeptides” and the food intake result was “decrease food intake”. Consider `CCCCCCCCCCC[C@@H](C[C@@H]1OC(=O)[C@H]1CCCCCC)OC(=O)[C@H](CC(C)C)NC=O` [Orlistat], for which, in assay [1], the “inhibition of viral replication” value was “strong inhibition of viral replication”.
